Values quoted from earlier work, collected in patent publication US8603529B2, “Polynucleotide aptamer-based cross-linked materials and uses thereof” (Smartcells, Inc., priority 2009, dated 2013).

Molecular target: avidin (Gallus gallus, UniProt P02701)
Sequence (P02701 25-152, species assumed): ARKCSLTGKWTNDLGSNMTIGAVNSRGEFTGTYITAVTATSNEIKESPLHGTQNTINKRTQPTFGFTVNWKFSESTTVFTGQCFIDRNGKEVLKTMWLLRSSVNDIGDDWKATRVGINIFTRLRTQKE

Compound: O=C(O)CCCC[C@@H]1SC[C@@H]2NC(=O)N[C@@H]21 [biotin]
- binding constant between biotin and avidin: 10^15 M^−1
